The target in this test is BTK (Homo sapiens (Human), UniProt Q06187). The experiment in a line: Btk kinase assay (HTRF). The class given is biochemical. The following applies: [ATP]=80 μM, BTK=3.4 nM; read-out: BTK Inhibition. The procedure, abridged:
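BTK (3.4 nM) incubated 1 h with inhibitor, 80 μM ATP and 1 μM peptide substrate in 50 mM HEPES pH 7.0 with BSA and orthovanadate. Reaction stopped with EDTA plus Eu-antibody/XL665; HTRF 665/615 ratio read after 1 h, IC50 calculated relative to no-inhibitor and no-enzyme controls.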
For orientation: TR-FRET usually uses a lanthanide donor and a delayed reading to cut background.

BTK, sequence (Q06187 whole entry, species assumed): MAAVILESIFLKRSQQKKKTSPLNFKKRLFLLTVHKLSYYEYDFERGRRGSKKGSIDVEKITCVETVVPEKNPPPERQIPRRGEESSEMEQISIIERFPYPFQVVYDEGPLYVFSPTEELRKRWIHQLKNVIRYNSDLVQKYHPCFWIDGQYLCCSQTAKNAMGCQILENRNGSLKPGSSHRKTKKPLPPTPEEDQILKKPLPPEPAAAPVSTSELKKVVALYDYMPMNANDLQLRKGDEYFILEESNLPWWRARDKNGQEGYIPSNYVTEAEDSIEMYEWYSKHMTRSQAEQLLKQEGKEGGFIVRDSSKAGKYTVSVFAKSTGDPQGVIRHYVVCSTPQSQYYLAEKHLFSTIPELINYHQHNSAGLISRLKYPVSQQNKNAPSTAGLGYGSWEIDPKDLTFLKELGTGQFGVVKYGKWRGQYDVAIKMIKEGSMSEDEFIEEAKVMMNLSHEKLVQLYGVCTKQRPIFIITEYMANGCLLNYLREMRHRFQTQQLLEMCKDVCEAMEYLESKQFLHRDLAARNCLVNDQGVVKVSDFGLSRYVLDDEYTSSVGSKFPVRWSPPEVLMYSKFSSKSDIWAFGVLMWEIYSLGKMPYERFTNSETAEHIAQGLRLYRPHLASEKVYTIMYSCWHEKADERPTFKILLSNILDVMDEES

Take `C=CC(=O)Nc1cccc(-n2c(=O)n(-c3ccc(Oc4cccc(F)c4OC)cc3)c3cnccc32)c1` [Example 136, N-(3-(3-(4-(3-fluoro-2-methoxyphenoxy)phenyl)-2-oxo-2,3-dihydro-1H-imidazo[4,5-c]pyridin-1-yl)phenyl)acrylamide]: the IC50 lay within 10 to 100 nM.
Under `CC#CC(=O)N1CC[C@@H](n2c(=O)n(-c3ccc(Oc4cccc(OC)c4F)cc3)c3cncc(C)c32)C1` [Example 173, (R)-1-(1-(but-2-ynoyl)pyrrolidin-3-yl)-3-(4-(2-fluoro-3-methoxyphenoxy)phenyl)-7-methyl-1H-imidazo[4,5-c] pyridin-2(3H)-one] stands 10 to 100 nM; under `C=CC(=O)Nc1cccc(-n2c(=O)n(-c3ccc(Oc4ccccc4)c(C)c3)c3cnccc32)c1` [Example 27, N-(3-(3-(3-methyl-4-phenoxyphenyl)-2-oxo-2,3-dihydro-1H-imidazo [4,5-c]pyridin-1-yl)phenyl)acrylamide], 1000 to 10000 nM.
The value for `C=CC(=O)N1CC[C@@H](n2c(=O)n(-c3ccc(Oc4cccc(Cl)c4OC)cc3)c3cnccc32)C1` [Example 63, (R)-1-(1-acryloylpyrrolidin-3-yl)-3-(4-(3-chloro-2-methoxyphenoxy)phenyl)-1H-imidazo[4,5-c]pyridine-2(3H)-one] was 10 to 100 nM; that for `C=CC(=O)Nc1cccc(-n2c(=O)n(-c3ccc(Oc4ccc(F)c(F)c4)cc3)c3cnccc32)c1` [Example 126, N-(3-(3-(4-(3,4-difluorophenoxy)phenyl)-2-oxo-2,3-dihydro-1H-imidazo[4,5-c]pyridin-1-yl)phenyl)acrylamide] was 100 to 1000 nM.
In the case of `C=CC(=O)Nc1cccc(-n2c(=O)n(-c3ccc(Oc4cccc(OC)c4)c(C)c3)c3cnccc32)c1` [Example 62, N-(3-(3-(4-(3-methoxyphenoxy)-3-methylphenyl)-2-oxo-2,3-dihydro-1H-imidazo[4,5-c]pyridin-1-yl)phenyl)acrylamide], the IC50 lay in the range of 10 to 100 nM.
In the case of `C=CC(=O)Nc1cccc(-n2c(=O)n(-c3ccc(OCc4cc(F)cc(F)c4)cc3)c3cnccc32)c1` [Example 219, N-(3-(3-(4-((3,5-difluorobenzyl)oxy)phenyl)-2-oxo-2,3-dihydro-1H-imidazo[4,5-c]pyridin-1-yl)phenyl)acrylamide], the IC50 fell in the range of 100 to 1000 nM.
Regarding `C=CC(=O)N1CC[C@@H](n2c(=O)n(-c3ccc(Oc4ccc(C(F)(F)F)cc4)cc3)c3cnccc32)C1` [Example 36, (R)-1-(1-acryloylpyrrolidin-3-yl)-3-(4-(4-(trifluoromethyl)phenoxy)phenyl)-1H-imidazo[4,5-c]pyridin-2(3H)-one], the IC50 was in the range of 100 to 1000 nM.
On to `C=CC(=O)N1CCC[C@@H](n2c(=O)n(-c3ccc(Oc4cccc(OC)c4)cc3)c3cnccc32)C1` [Example 118, (R)-1-(1-acryloylpiperidin-3-yl)-3-(4-(3-methoxyphenoxy)phenyl)-1H-imidazo[4,5-c]pyridin-2(3H)-one], for which the IC50 lay within 10 to 100 nM.
Regarding `C=CC(=O)Nc1cccc(-n2c(=O)n(-c3ccc(Oc4cccc(Cl)c4)c(C)c3)c3cnccc32)c1` [Example 154, N-(3-(3-(4-(3-chlorophenoxy)-3-methylphenyl)-2-oxo-2,3-dihydro-1H-imidazo[4,5-c]pyridin-1-yl)phenyl)acrylamide], the IC50 is 1000 to 10000 nM.
With `C=CC(=O)Nc1cccc(-n2c(=O)n(-c3ccc(NC(=O)c4cccc(F)c4)cc3)c3cnccc32)c1` [Example 265, N-(4-(1-(3-acrylamidophenyl)-2-oxo-1H-imidazo[4,5-c]pyridin-3(2H)-yl)phenyl)-3-fluorobenzamide], the IC50 lay in the range of 100 to 1000 nM.
As for `C=CC(=O)N1CCC[C@@H](n2c(=O)n(-c3ccc(Oc4cccc(C)c4)cc3)c3cnccc32)C1` [Example 13, (R)-1-(1-acryloylpiperidin-3-yl)-3-(4-(m-tolyloxy)phenyl)-1H-imidazo[4,5-c]pyridin-2(3H)-one], the IC50 was in the range of 10 to 100 nM.
With `C=CC(=O)Nc1cccc(-n2c(=O)n(-c3ccc(OCc4ccc(Cl)c(Cl)c4)cc3)c3cnccc32)c1` [Example 218, N-(3-(3-(4-((3,4-dichlorobenzyl)oxy)phenyl)-2-oxo-2,3-dihydro-1H-imidazo[4,5-c]pyridin-1-yl)phenyl)acrylamide], the IC50 is 100 to 1000 nM.
As for `C=CC(=O)N1CCC(n2c(=O)n(-c3ccc(Oc4ccccc4)cc3)c3cnccc32)CC1` [Example 30, 1-(1-acryloylpiperidin-4-yl)-3-(4-phenoxyphenyl)-1H-imidazo[4,5-c]pyridin-2(3H)-one], the IC50 is at least 10000 nM.
In the case of `C=CC(=O)N1CC[C@@H](n2c(=O)n(-c3cccc(Oc4ccccc4)c3)c3cnccc32)C1` [Example 155, (R)-1-(1-acryloylpyrrolidin-3-yl)-3-(3-phenoxyphenyl)-1H-imidazo[4,5-c]pyridin-2(3H)-one], the IC50 fell in the range of 10 to 100 nM.
Turning to `C=CC(=O)Nc1cccc(-n2c(=O)n(-c3ccc(Oc4cc(F)cc(Cl)c4)cc3)c3cnccc32)c1` [Example 129, N-(3-(3-(4-(3-chloro-5-fluorophenoxy)phenyl)-2-oxo-2,3-dihydro-1H-imidazo[4,5-c]pyridin-1-yl)phenyl)acrylamide], the IC50 was 100 to 1000 nM.
With `C=CC(=O)N1CC[C@@H](n2c(=O)n(-c3ccc(OCc4cccc(C(F)(F)F)c4)c(Cl)c3)c3cnccc32)C1` [Example 200, (R)-1-(1-acryloylpyrrolidin-3-yl)-3-(3-chloro-4-((3-(trifluoromethyl)benzyl)oxy)phenyl)-1H-imidazo[4,5-c]pyridine-2(3H)-one], the IC50 lay in the range of 100 to 1000 nM.
The value for `C=CC(=O)Nc1cccc(-n2c(=O)n(-c3ccc(OCc4ccc(Cl)cc4F)cc3)c3cnccc32)c1` [Example 245, N-(3-(3-(4-((4-chloro-2-fluorobenzyl)oxy)phenyl)-2-oxo-2,3-dihydro-1H-imidazo[4,5-c]pyridin-1-yl)phenyl)acrylamide] was 100 to 1000 nM.
Regarding `CC#CC(=O)N1CC[C@@H](n2c(=O)n(-c3ccc(Oc4ccccc4)cc3)c3cnccc32)C1` [Example 34, (R)-1-(1-(but-2-ynoyl)pyrrolidin-3-yl)-3-(4-phenoxyphenyl)-1H-imidazo [4,5-c]pyridin-2(3H)-one], the IC50 was at least 10000 nM.
With `C=CC(=O)N1CC[C@@H](n2c(=O)n(-c3ccc(Oc4cccc(F)c4OC)cc3)c3cnccc32)C1` [Example 137, (R)-1-(1-acryloylpyrrolidin-3-yl)-3-(4-(3-fluoro-2-methoxyphenoxy)phenyl)-1H-imidazo[4,5-c]pyridin-2(3H)-one], the IC50 lay within 100 to 1000 nM.
Under `C=CC(=O)Nc1cccc(-n2c(=O)n(-c3ccc(Oc4ccccc4)cc3)c3ccncc32)c1` [Example 121, N-(3-(2-oxo-1-(4-phenoxyphenyl)-1H-imidazo[4,5-c]pyridin-3(2H)-yl)phenyl)acrylamide] stands 100 to 1000 nM; under `C=CC(=O)Nc1cccc(-n2c(=O)n(-c3ccc(Oc4cccc(OC(F)(F)F)c4)cc3)c3cnccc32)c1` [Example 70, N-(3-(2-oxo-3-(4-(3-(trifluoromethoxy)phenoxy)phenyl)-2,3-dihydro-1H-imidazo[4,5-c]pyridin-1-yl)phenyl)acrylamide], 1000 to 10000 nM.
With `C=CC(=O)Nc1cccc(-n2c(=O)n(-c3ccc(Oc4ccccc4)cc3)c3cccnc32)c1` [Example 116, N-(3-(2-oxo-1-(4-phenoxyphenyl)-1H-imidazo[4,5-b]pyridin-3(2H)-yl)phenyl)acrylamide], the IC50 fell in the range of 100 to 1000 nM.
On to `C=CC(=O)N1CC[C@@H](n2c(=O)n(-c3ccc(Oc4cccc(OC)c4)c(F)c3)c3cnccc32)C1` [Example 53, (R)-1-(1-acryloylpyrrolidin-3-yl)-3-(3-fluoro-4-(3-methoxyphenoxy)phenyl)-1H-imidazo[4,5-c]pyridin-2(3H)-one], for which the IC50 lay within 10 to 100 nM.
The value for `NC(=O)C(=O)N1CCCC(n2c(=O)n(-c3ccc(Oc4ccccc4)cc3)c3cnccc32)C1` (stereo not shown) [Example 194, 2-oxo-2-(3-(2-oxo-3-(4-phenoxyphenyl)-2,3-dihydro-1H-imidazo[4,5-c]pyridin-1-yl)piperidin-1-yl)acetamide] was at least 10000 nM.
With `C=CC(=O)Nc1cccc(-n2c(=O)n(-c3ccc(OCc4cccc(C(F)(F)F)c4)cc3)c3cnccc32)c1` [Example 240, N-(3-(2-oxo-3-(4-((3-(trifluoromethyl)benzyl)oxy)phenyl)-2,3-dihydro-1H-imidazo[4,5-c]pyridin-1-yl)phenyl)acrylamide], the IC50 lay in the range of 10 to 100 nM.
Under `C=CC(=O)Nc1cccc(-n2c(=O)n(-c3ccc(C4CC4)cc3)c3cnccc32)c1` [Example 278, N-(3-(3-(4-cyclopropylphenyl)-2-oxo-2,3-dihydro-1H-imidazo[4,5-c]pyridin-1-yl)phenyl)acrylamide] stands 10 to 100 nM.
The value for `C=CC(=O)Nc1cccc(-n2c(=O)n(-c3cccc(Oc4ccccc4)c3)c3cnccc32)c1` [Example 7, N-(3-(2-oxo-3-(3-phenoxyphenyl)-2,3-dihydro-1H-imidazo[4,5-c]pyridin-1-yl)phenyl)acrylamide] was 10 to 100 nM; that for `C=CC(=O)N1CC[C@@H](n2c(=O)n(-c3ccc(Oc4cccc(OC)c4)c(Cl)c3)c3cnccc32)C1` [Example 45, (R)-1-(1-acryloylpyrrolidin-3-yl)-3-(3-chloro-4-(3-methoxyphenoxy)phenyl)-1H-imidazo[4,5-c]pyridin-2(3H)-one] was 10 to 100 nM.
Consider `C=CC(=O)N1CCC[C@@H](n2c(=O)n(-c3ccc(Oc4cccc(OC)c4F)cc3)c3cnccc32)C1` [Example 186, (R)-1-(1-acryloylpiperidin-3-yl)-3-(4-(2-fluoro-3-methoxyphenoxy)phenyl)-1H-imidazo[4,5-c]pyridin-2(3H)-one], for which the IC50 was at most 10 nM.
As to `O=C(/C=C/N1CCOCC1)N1CC[C@@H](n2c(=O)n(-c3ccc(Oc4ccccc4)c(Cl)c3)c3cnccc32)C1` [Example 18, (R,E)-3-(3-chloro-4-phenoxyphenyl)-1-(1-(3-morpholinoacryloyl)pyrolidin-3-yl)-1H-imidazo[4,5-c]-pyridin-2(3H)-one], the IC50 was in the range of 100 to 1000 nM.
